Key:
[1] = system: Streptococcus mutans; details: cited from earlier work
[2] = system: Staphylococcus aureus; details: cited from earlier work
[3] = system: Neisseria gonorrhoeae; details: cited from earlier work
[4] = system: Campylobacter jejuni; details: cited from earlier work
[5] = system: Listeria monocytogenes; details: cited from earlier work
[6] = system: Nococardia asteroides; details: cited from earlier work
[7] = system: Corynebacteria sp.; details: cited from earlier work
[8] = system: Respiratory syncytial virus (RSV); details: cited from earlier work
[9] = system: Streptococci pyogenes; details: cited from earlier work
[10] = system: Streptococci A; details: cited from earlier work
[11] = system: Pseudomonas aeruginosa; details: cited from earlier work
[12] = system: Parainfluenza virus type 2; details: cited from earlier work
[13] = system: Herpes virus type 1 (HSV-1); details: cited from earlier work
[14] = system: Staphylococcus epidermis; details: cited from earlier work
[15] = system: Candida albicans (yeast); details: cited from earlier work
[16] = system: Herpes virus type 2 (HSV-2); details: cited from earlier work
[17] = system: Haemophilus influenzae; details: cited from earlier work
[18] = system: Streptococcus D; details: cited from earlier work
[19] = system: Chlamydia trachomatis; details: cited from earlier work
[20] = system: Micrococcus sp.; details: cited from earlier work
[21] = system: Streptococcus pneumoniae; details: cited from earlier work
[22] = system: Lactobacillus jensenii; details: cited from earlier work
[23] = system: Influenza A virus; details: cited from earlier work
[24] = Thermostability of aqueous lipid solutions; type: physicochemical; details: exposed to temperature below 10° C. or above 25° C.
Description: EP-0351651 describes the use of PEG-C8/C10-glycerides as an absorption promoter for insulin. Especially for orally and buccally administered insulin. From the disclosure it appears that an increase in concentration of PEG-C8/C10-glycerides results in an increase in absorption. With respect to a nasal composition the composition described has a relatively high concentration of absorption enhancer, namely about 50% w/w. WO2003070280 (Absorption enhancing agent) describes the use of PEG-C8/C10-glycerides as absorption promoter for e.g. sumatriptan, in most preferred concentrations of 0.1-10%. Here, the function of PEG-C8/C10-glycerides should not promote absorption, since that will remove the active ingredient from the surface such as the mucosal surface, and into the systemic circulation. However, PEG-C8/C10 is able to act as a thermostabilizer for formulations containing lipids that are insoluble in water.

[25] = system: Helicobacter pylori; details: cited from earlier work

## CCCCCCCCCC(=O)OCC(O)CO (stereo not shown) [monocaprin]
[1]
  effectiveness against microbe: effective
[2]
  bactericidal effect: bacteriocid
[3]
  effectiveness against microbe: effective
[4]
  effectiveness against microbe: effective
[5]
  effectiveness against microbe: effective
[6]
  effectiveness against microbe: effective
[7]
  effectiveness against microbe: effective
[8]
  effectiveness against virus: effective
[9]
  bactericidal effect: bacteriocid
[10]
  bactericidal effect: bacteriocid
[11]
  effectiveness against microbe: effective
[12]
  effectiveness against virus: effective
[13]
  effectiveness against virus: effective
[14]
  bactericidal effect: bacteriocid
[15]
  effectiveness against microbe: effective
[16]
  effectiveness against virus: effective
[17]
  bactericidal effect: bacteriocid
[18]
  effectiveness against microbe: effective
[19]
  effectiveness against microbe: effective
[20]
  effectiveness against microbe: effective
[21]
  effectiveness against microbe: effective
[22]
  effectiveness against microbe: effective
[23]
  effectiveness against virus: effective
[24]
  precipitation in aqueous formulations: will easily precipitate
[25]
  effectiveness against microbe: effective
